From US8034812B2, “Imidazopyridazine derivative having kinase inhibitory activity and pharmaceutical agent thereof” (Takeda Pharmaceutical Company Limited, priority 2006, dated 2011) come the findings set out here.

For assay [1], the target named is T1, VEGFR2 intracellular domain protein (Homo sapiens, UniProt P35968).
T1 construct: made in house; host or cells: SF-21 insect cells, recombinant baculovirus BAC-VEGFR2
Put plainly: Determination of vascular endothelial growth factor receptor 2 (VEGFR2) kinase inhibitory activity (AlphaScreen). The class given is biochemical. The settings on record: read-out: VEGFR2 kinase inhibitory rate. On the procedure: Human vascular endothelial growth factor receptor 2 (hereinafter to be referred to as VEGFR2) gene was cloned by PCR using cDNA Libraries Human Placenta (Clontech) as a template. The primer used for PCR was prepared from base sequence (Genbank Accession AF035121) information of VEGFR2 gene by adding a base sequence encoding flag peptide and a recognition sequence of the restriction enzyme to a base sequence (2671-4374 of Genbank Accession AF035121) encoding the VEGFR2 intracellular domain region, so that the protein contains an N-terminal Flag tag. The primer base sequence is shown below.
SF-21 cells were sown at 1×10^6 cells/mL to Sf-900II SFM medium (1 L, Invitrogen) containing 10% fetal bovine serum (trace), 50 mg/L Gentamicin (Invitrogen) and 0.1% Pluronic F-68 (Invitrogen), and shaking culture was performed using a 2 L volume Erlenmeyer flask at 27° C., 100 rpm. After culturing for 24 hrs, recombinant baculovirus BAC-VEGFR2 (13.4 mL) was added to the mixture, and the mixture was further cultured for 3 days. The culture medium was centrifuged at 2,000 rpm for 5 min to give virus-infected cells. The infected cells were washed with a phosphate buffered saline (Invitrogen), centrifuged under the same conditions, and the cells were preserved at −80° C. The cryopreserved cells were thawed in ice, suspended in buffer A (50 mM Tris buffer (30 mL, pH 7.4) containing 20% glycerol, 0.15 M NaCl) supplemented with Complete Protease Inhibitor (Boehringer), and ruptured 3 times with a Polytron homogenizer (Kinematica) at 20,000 rpm for 30 sec. The ruptured medium was clarified by centrifugation at 40,000 rpm for 30 min and filtered with a 0.45 μm filter. The filtrate was passed through a column packed with Anti-FLAG M2 Affinity Gel (4 mL, Sigma) at a flow rate of about 0.5 mL/min. The column was washed with buffer A, and eluted with buffer A containing 100 μg/mL of FLAG peptide. The eluate was concentrated with Vivaspin 20 (Vivascience) having a molecular weight cut off of 30K. The buffer of this concentrate was exchanged using NAP™ 25 column (Amersham Bioscience) equilibrated with buffer A. The fractions containing intracellular domain protein of VEGFR2 were collected, glycerol was added to the final concentration of 50% and cryopreserved at −80° C.
A test compound dissolved in dimethyl sulfoxide (DMSO) was diluted with a buffer (50 mM Tris-HCl (pH 7.5), 5 mM MgCl2, 5 mM MnCl2, 2 mM dithiothreitol, 0.01% Tween-20). To this compound solution (5 μL) was added a buffer (10 μL) containing 50 ng/mL of VEGFR2 intracellular domain protein and 250 ng/mL of biotin labeled polypeptide biotinyl-poly-Glu:Tyr (4:1) (CIS bio International). To the obtained mixture was added a buffer (10 μL) containing ATP (25 μM), the mixture was allowed to react at 25° C. for 5 min and the reaction was quenched with 25 μL of a stop solution (100 mM EDTA disodium salt, 62.5 mM HEPES buffer (pH 7.4), 250 mM NaCl, 0.1% bovine serum albumin, 10 μg/mL AlphaScreen assay streptavidin donor beads (Streptavidin Donor beads: PerkinElmer), 10 μg/mL AlphaScreen assay anti-phosphotyrosine recognition antibody PY-100 binding acceptor beads (Anti-phosphotyrosine (P-Tyr-100) Acceptor beads: PerkinElmer)). The reaction solution was allowed to stand at 25° C. for 16 hrs, and the wells were counted using a plate reader Fusion™ (PerkinElmer). The kinase inhibitory rate (%) of the test compound was calculated by the following formula: Inhibitory rate(%)=(1−(count of test compound−blank)÷(control−blank))×100

In assay [2] the test system is Human umbilical vein-derived vascular endothelial cells (HUVEC). Nature of the assay: Vascular endothelial cell growth inhibitory test (VEGF-stimulated HUVEC, XTT). The settings on record: 120 h, 5 days of culture. The class given is cell-based. As to the method:
To be specific, HUVEC was suspended in a vascular endothelial cell medium containing the aforementioned 5% bovine fetal serum and plated on a 96 well flat bottom plate by 50 μL (3000 cells) each well. After culture overnight, various concentrations of the test substance and 120 ng/mL of vascular endothelial growth factor (VEGF) were dissolved in a vascular endothelial cell medium containing 5% bovine fetal serum and added to each well by 50 μL. After 5 days of culture, a XTT reagent (Wako Pure Chemical Industries, Ltd.) was added to each well by 10 μL, and the mixture was reacted in an incubator at 37° C., 5% carbon dioxide for 2-3 hr. The absorbance at 450 nm was measured by a microtiter plate reader and the cell growth inhibitory activity was determined.
For orientation: Formazan colour is commonly taken as a measure of viable cells.

Assay [3] deals with T2, PDGFRα intracellular domain protein (Homo sapiens, UniProt P16234).
T2 construct: 125 ng/ml of PDGFRα intracellular domain protein (UPSTATE); purchased UPSTATE
T2 sequence (P16234 550-1089 limits assumed): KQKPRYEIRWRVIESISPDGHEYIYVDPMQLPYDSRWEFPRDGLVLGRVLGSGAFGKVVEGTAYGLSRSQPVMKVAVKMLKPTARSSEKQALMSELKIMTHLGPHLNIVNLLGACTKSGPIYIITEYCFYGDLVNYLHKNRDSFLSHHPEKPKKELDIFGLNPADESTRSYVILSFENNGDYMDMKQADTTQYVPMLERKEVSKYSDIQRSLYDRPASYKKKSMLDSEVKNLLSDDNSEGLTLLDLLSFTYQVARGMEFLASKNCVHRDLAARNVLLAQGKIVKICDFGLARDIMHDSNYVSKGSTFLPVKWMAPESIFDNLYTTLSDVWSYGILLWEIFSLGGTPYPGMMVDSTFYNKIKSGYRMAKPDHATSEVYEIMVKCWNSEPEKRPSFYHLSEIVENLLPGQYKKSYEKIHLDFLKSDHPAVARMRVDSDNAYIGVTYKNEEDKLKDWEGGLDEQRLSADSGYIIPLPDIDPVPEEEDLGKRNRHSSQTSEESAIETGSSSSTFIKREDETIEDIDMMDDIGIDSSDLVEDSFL
Put plainly: Determination of platelet-derived growth factor receptor α (PDGFRα) kinase inhibitory activity (AlphaScreen). It is filed as biochemical. On the procedure: (§1) A test compound dissolved in dimethyl sulfoxide (DMSO) was diluted with a buffer (50 mM Tris-HCl (pH 7.5), 5 mM MgCl2, 5 mM MnCl2, 2 mM dithiothreitol, 0.01% Tween-20). To this compound solution (5 μL) was added a buffer (10 μL) containing 125 ng/ml of PDGFRα intracellular domain protein (UPSTATE) and 250 ng/mL of biotin labeled polypeptide biotinyl-poly-Glu:Tyr (4:1) (CIS bio International). At 5 min after mixing kinase enzyme and the compound and biotin labeled polypeptide, to the obtained mixture was added a buffer (10 μL) containing ATP (25 μM), the mixture was allowed to react at 25° C. for 30 min and the reaction was quenched with 25 μL of a stop solution (100 mM EDTA disodium salt, 62.5 mM HEPES buffer (pH 7.4), 250 mM NaCl, 0.1% bovine serum albumin, 10 μg/mL AlphaScreen assay streptavidin donor beads (Streptavidin Donor beads: PerkinElmer), 10 μg/mL AlphaScreen assay anti-phosphotyrosine recognition antibody PT-66 binding acceptor beads (Anti-phosphotyrosine (P-Tyr-66) Acceptor beads: PerkinElmer)). The reaction solution was allowed to stand at 25° C. for 16 hrs, and the wells were counted using a plate reader Fusion™ (PerkinElmer). The kinase inhibitory rate (%) of the test compound was calculated by the following formula: Inhibitory rate(%)=(1−(count of test compound−blank)÷(control−blank))×100
(§2) The count of the solution reacted without addition of the compound was used as a “control”, and the count of the solution without the compound and ATP was used as a “blank”.

Assay [4] has as its target T3, PDGFRβ intracellular domain protein (Homo sapiens, UniProt P09619).
T3 construct: 125 ng/ml of PDGFRβ intracellular domain protein (UPSTATE); purchased UPSTATE
Nature of the assay: Determination of platelet-derived growth factor receptor β (PDGFRβ) kinase inhibitory activity (AlphaScreen). It is filed as biochemical. As to the method:
as §1, with “of PDGFRβ” for “of PDGFRα”, “Donor Beads:” for “Donor beads:”, “test compound[…])÷(control−blank))×100” for “test compound−blank)÷(control−blank))×100”
as §2

Molecules are shown by their SMILES. Bounds are passed on as bounds.

T1 sequence (P35968 786-1356 limits assumed): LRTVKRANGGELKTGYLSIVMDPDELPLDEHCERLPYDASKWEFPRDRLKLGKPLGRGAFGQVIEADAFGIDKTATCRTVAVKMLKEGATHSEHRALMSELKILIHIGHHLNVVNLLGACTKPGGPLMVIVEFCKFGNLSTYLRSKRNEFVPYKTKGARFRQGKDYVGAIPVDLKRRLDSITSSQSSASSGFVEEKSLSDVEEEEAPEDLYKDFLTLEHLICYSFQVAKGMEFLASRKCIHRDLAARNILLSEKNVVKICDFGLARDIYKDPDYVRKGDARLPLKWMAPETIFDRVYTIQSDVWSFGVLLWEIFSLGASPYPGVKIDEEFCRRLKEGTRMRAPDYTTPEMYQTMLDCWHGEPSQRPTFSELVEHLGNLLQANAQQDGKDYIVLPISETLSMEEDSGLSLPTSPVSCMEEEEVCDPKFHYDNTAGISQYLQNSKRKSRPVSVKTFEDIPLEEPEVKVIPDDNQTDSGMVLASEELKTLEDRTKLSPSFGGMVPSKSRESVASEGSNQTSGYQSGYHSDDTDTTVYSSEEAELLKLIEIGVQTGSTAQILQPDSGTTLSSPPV
T3 sequence (P09619 554-1106 limits assumed): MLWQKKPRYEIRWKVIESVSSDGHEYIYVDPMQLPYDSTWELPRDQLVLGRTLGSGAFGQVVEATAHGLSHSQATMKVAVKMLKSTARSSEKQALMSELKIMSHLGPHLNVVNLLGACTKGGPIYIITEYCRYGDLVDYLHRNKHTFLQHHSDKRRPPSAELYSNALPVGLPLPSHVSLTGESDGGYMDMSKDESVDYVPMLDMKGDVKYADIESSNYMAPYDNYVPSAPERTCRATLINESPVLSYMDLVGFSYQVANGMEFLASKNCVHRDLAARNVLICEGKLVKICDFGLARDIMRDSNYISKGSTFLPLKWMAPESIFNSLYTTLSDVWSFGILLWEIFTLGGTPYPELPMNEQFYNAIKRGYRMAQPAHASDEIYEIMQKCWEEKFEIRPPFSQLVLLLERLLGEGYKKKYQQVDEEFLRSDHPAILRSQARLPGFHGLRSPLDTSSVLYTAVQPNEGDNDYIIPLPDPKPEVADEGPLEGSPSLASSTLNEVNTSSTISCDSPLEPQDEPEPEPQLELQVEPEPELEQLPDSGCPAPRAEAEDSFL

By IC50 is commonly meant the midpoint of a concentration-inhibition curve. Low values mean higher potency, high ones lower potency. With `Cc1cc(C(=O)Nc2cc(Oc3ccc4nc(NC(=O)C5CC5)cn4n3)ccc2F)n(C)n1` [Example 148, N-[5-({2-[(cyclopropylcarbonyl)amino]imidazo[1,2-b]pyridazin-6-yl}oxy)-2-fluorophenyl]-1,3-dimethyl-1H-pyrazole-5-carboxamide], the inhibition at 1 µM in assay [1] was at least 90%. The IC50 in assay [2], in assay [3] and in assay [4] was at most 500 nM throughout.

As for `COc1cc(C(=O)Nc2cc(Oc3ccc4nc(NC(=O)C5CC5)cn4n3)ccc2C)n(C)n1` [Example 302, N-[5-({2-[(cyclopropylcarbonyl)amino]imidazo[1,2-b]pyridazin-6-yl}oxy)-2-methylphenyl]-3-methoxy-1-methyl-1H-pyrazole-5-carboxamide], the inhibition at 1 µM in assay [1] is at least 90%. The half-maximal inhibitory concentration (IC50) in assay [2], in assay [3] and in assay [4] was at most 500 nM each time.

As for `Cc1cccnc1C(=O)Nc1cccc(Oc2ccc3nc(NC(=O)C4CC4)cn3n2)c1` [Example 187, N-[3-({2-[(cyclopropylcarbonyl)amino]imidazo[1,2-b]pyridazin-6-yl}oxy)phenyl]-3-methylpyridine-2-carboxamide], the inhibition at 1 µM in assay [1] was at least 90%. The IC50 in assay [2], in assay [3] and in assay [4] was at most 500 nM each time.

On to `Cc1nc(C)c(C(=O)Nc2cc(Oc3ccc4nc(NC(=O)C5CC5)cn4n3)ccc2F)s1` [Example 267, N-[5-({2-[(cyclopropylcarbonyl)amino]imidazo[1,2-b]pyridazin-6-yl}oxy)-2-fluorophenyl]-2,4-dimethyl-1,3-thiazole-5-carboxamide], for which, in assay [1], the inhibition at 1 µM was at least 90%. Further, the 50% inhibitory concentration (IC50) in assay [2], in assay [3] and in assay [4] was at most 500 nM throughout.

Take `CCc1cc(C(=O)Nc2cc(Oc3ccc4nc(NC(=O)C5CC5)cn4n3)ccc2F)n(C)n1` [Example 208, N-[5-({2-[(cyclopropylcarbonyl)amino]imidazo[1,2-b]pyridazin-6-yl}oxy)-2-fluorophenyl]-3-ethyl-1-methyl-1H-pyrazole-5-carboxamide]: the inhibition at 1 µM in assay [1] was at least 90%. In addition, the IC50 in assay [2], in assay [3] and in assay [4] was at most 500 nM each time.

As to `Cc1cc(C(=O)Nc2cc(Oc3ccc4nc(NC(=O)C5CC5C)cn4n3)ccc2F)n(C)n1` (stereo not drawn) [Example 243, N-{2-fluoro-5-[(2-{[(2-methylcyclopropyl)carbonyl]amino}imidazo[1,2-b]pyridazin-6-yl)oxy]phenyl}-1,3-dimethyl-1H-pyrazole-5-carboxamide], in assay [1], the inhibition at 1 µM was at least 90%. In addition, the IC50 in assay [2], in assay [3] and in assay [4] was at most 500 nM each time.
